For 25 compounds, IC50 results are on record in patent US10689378B2, “Triazolopyridine compounds and uses thereof” (Novartis AG, priority 2016, dated 2020).

Assay [1] deals with T1, EED (1-441)-His protein (Homo sapiens, UniProt O75530).
T1 construct: 30 nM EED (1-441)-His protein
The assay can be described thus: EED-H3K27Me3 peptide competition binding assay by AlphaScreen. The conditions noted are these: read-out: (a) IC50, EED Alphascreen binding Qualified. The essentials:
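Serially diluted compound (12 points, 3-fold) incubated 20 min with 30 nM EED(1-441)-His and 15 nM biotin-H3K27Me3(19-33) peptide in 25 mM HEPES pH 8, 0.02% Tween-20, 0.5% BSA. Ni-chelate acceptor/streptavidin donor beads (10 μg/mL each) added, 1 h rt dark; 615 nm emission normalized to controls, dose-response fit for IC50.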
A general note: Bead proximity is the source of the signal in Alpha formats.

For assay [2], the target named is wild type PRC2 (wtPRC2) complex (Homo sapiens, UniProt O75530). The assay can be described thus: EED LC-MS assay (SAH production by PRC2). In kind it is biochemical. The conditions noted are these: read-out: (b) IC50, EED LC-MS Qualified. The essentials:
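Pentameric PRC2 (EZH2, SUZ12, EED, Rbap48, AEBP), 12 nM final, preincubated 20 min with compound and SAM, then 1.5 μM biotinylated H3K27me0 peptide, 1 μM SAM, pH 8.0, 120 min at rt. SAH quantified by LC-MS/MS with d4-SAH; control-normalized activity fitted for IC50.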

The subject of assay [3] is H3K27 methylation in G401 cell. The assay can be described thus: ELISA (H3K27 methylation) assay in G401 cells. In kind it is cell-based, human. The conditions noted are these: Homo sapiens, G-401, read-out: (c) IC50, ELISA Qualified. The essentials:
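G401 cells treated 48 h with 3-fold dilutions (8 or 12 points, top 20 μM). Acid-extracted histones probed by ELISA for H3K27me3 or H3K27me2 with ECL readout, normalized to total H3. Percent inhibition versus DMSO fitted to dose-response curve for IC50.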
In general terms: An ELISA detects its analyte on a solid surface through an enzyme-linked reagent.

Structures are written as SMILES.

T1 sequence (O75530 whole entry): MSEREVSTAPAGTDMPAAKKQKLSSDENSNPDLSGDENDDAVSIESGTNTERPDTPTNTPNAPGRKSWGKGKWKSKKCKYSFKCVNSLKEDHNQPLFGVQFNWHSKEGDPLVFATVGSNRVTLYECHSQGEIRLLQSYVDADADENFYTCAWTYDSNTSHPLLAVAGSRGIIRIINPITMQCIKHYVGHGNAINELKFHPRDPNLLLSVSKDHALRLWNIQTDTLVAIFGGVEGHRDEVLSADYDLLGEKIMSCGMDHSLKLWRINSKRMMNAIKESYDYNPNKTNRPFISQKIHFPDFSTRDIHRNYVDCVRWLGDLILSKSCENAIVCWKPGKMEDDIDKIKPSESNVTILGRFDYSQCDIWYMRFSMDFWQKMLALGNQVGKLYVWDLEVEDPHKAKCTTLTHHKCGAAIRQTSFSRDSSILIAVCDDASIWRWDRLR
Chain of wild type PRC2 (wtPRC2) complex (O75530 whole entry): as above
Chain of wild type PRC2 (wtPRC2) complex (Q15910 whole entry partner): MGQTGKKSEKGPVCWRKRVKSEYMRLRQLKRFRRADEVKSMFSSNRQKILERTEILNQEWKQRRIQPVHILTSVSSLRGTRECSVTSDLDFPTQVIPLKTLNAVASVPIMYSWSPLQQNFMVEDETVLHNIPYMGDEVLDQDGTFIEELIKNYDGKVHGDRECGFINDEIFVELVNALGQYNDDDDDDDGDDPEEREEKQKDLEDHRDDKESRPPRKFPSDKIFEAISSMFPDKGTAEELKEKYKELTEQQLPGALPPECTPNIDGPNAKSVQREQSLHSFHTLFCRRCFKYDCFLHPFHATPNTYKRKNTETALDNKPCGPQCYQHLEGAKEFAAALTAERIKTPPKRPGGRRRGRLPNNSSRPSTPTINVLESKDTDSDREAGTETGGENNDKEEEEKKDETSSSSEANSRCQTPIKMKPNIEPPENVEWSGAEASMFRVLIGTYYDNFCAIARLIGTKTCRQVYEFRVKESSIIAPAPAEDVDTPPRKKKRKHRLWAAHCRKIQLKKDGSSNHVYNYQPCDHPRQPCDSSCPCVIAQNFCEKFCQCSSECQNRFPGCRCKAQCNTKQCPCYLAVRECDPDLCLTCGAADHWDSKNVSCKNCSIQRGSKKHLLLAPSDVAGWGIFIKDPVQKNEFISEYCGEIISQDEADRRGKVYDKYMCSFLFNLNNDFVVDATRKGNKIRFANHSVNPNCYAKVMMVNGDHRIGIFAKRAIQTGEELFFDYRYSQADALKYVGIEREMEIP
Chain of wild type PRC2 (wtPRC2) complex (Q15022 whole entry partner): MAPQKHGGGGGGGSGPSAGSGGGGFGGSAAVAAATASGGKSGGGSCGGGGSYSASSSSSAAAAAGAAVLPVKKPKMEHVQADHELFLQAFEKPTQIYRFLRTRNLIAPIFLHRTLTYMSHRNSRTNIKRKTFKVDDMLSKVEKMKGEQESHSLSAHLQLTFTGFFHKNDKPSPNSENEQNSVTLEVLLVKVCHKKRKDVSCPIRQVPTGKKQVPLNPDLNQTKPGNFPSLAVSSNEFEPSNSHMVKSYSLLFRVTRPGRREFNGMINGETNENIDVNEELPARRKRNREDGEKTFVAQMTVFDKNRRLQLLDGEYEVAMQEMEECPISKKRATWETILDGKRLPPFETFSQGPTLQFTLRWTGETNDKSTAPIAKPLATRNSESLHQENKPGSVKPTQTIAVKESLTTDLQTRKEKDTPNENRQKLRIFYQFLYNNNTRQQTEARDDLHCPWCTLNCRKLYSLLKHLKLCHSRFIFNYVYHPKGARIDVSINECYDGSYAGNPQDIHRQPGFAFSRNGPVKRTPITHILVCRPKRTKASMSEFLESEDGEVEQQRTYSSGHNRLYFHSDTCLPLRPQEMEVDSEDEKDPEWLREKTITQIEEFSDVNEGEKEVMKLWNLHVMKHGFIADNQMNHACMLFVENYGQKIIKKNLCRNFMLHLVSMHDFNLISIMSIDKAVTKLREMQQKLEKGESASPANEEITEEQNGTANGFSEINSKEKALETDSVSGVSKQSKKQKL
Chain of wild type PRC2 (wtPRC2) complex (Q09028 whole entry partner): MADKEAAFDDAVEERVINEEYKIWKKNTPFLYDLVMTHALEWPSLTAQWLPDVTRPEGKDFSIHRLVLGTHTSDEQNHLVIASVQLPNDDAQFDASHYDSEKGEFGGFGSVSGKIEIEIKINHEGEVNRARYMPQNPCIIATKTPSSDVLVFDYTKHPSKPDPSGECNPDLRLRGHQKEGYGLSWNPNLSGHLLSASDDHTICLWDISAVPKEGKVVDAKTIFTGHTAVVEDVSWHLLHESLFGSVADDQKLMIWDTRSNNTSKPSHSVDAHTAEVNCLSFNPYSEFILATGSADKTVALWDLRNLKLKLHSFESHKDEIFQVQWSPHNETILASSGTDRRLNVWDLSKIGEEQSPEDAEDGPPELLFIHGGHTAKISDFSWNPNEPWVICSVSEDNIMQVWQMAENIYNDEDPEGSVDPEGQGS
Chain of wild type PRC2 (wtPRC2) complex (Q6ZN18 whole entry partner): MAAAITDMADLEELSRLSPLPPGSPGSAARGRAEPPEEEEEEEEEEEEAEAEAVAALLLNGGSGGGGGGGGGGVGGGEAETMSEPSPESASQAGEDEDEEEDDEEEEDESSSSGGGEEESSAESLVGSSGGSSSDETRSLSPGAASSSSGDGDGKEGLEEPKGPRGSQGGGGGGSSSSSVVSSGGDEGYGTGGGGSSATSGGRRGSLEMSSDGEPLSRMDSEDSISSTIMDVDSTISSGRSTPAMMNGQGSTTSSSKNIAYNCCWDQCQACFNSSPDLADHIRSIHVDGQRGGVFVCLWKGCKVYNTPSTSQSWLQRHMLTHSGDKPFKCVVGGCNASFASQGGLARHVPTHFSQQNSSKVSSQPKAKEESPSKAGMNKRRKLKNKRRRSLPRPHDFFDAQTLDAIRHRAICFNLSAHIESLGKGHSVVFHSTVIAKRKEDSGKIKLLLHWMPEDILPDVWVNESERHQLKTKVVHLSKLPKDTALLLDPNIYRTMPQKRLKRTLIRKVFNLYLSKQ

As usually defined, the IC50 is the concentration that inhibits the measured activity by half. For the compound `COc1ccccc1CNc1ccc(-c2ccc(Cn3ccnc3)cc2)c2nncn12` [Example 76, 8-(4-((1H-imidazol-1-yl)methyl)phenyl)-N-(2-methoxybenzyl)-[1,2,4] triazolo[4,3-a]pyridin-5-amine], the concentration for half-maximal inhibition (IC50) in assay [1] was found to be 41.9 nM; in assay [2], 420 nM; in assay [3], 133 nM.
In the same order, the values of `COc1ccccc1CNc1ccc(-c2ccc(N3CCN(C(C)C)CC3)cc2)c2nncn12` [Example 77, 8-(4-(4-isopropylpiperazin-1-yl)phenyl)-N-(2-methoxybenzyl)-[1,2,4]triazolo[4,3-a] pyridin-5-amine] are 14.6 nM, 106 nM and 21.7 nM.
For the compound `COc1cccc(F)c1CNc1ccc(-c2ccc(S(C)(=O)=O)cc2)c2nncn12` [Example 78, N-(2-fluoro-6-methoxybenzyl)-8-(4-(methylsulfonyl)phenyl)-[1,2,4]triazolo[4,3-a]pyridin-5-amine], the IC50 in assay [1] turned out to be 18 nM; in assay [2], 75.1 nM; in assay [3] it was 26.1 nM.
As for `COc1ccccc1CNc1ccc(-c2ccc(NS(C)(=O)=O)cc2)c2nncn12` [Example 82, N-(4-(5-((2-methoxybenzyl)amino)-[1,2,4]triazolo[4,3-a]pyridin-8-yl)phenyl) methanesulfonamide], the IC50 in assay [1] stood at 80.3 nM; in assay [2], 509 nM; in assay [3] it was 330 nM.
As to `COc1cc(F)ccc1CNc1ccc(-c2ccc(S(C)(=O)=O)cc2)c2nncn12` [Example 83, N-(4-fluoro-2-methoxybenzyl)-8-(4-(methylsulfonyl)phenyl)-[1,2,4]triazolo[4,3-a]pyridin-5-amine], the IC50 in assay [1] was determined as 55.7 nM; in assay [2] it was 491 nM; in assay [3] it was 815 nM.
With `COc1ccccc1CNc1ccc(-c2ccc(N3CCN(C(C)C)CC3)nc2)c2nncn12` [Example 87, 8-(6-(4-isopropylpiperazin-1-yl)pyridin-3-yl)-N-(2-methoxybenzyl)-[1,2,4] triazolo[4,3-a]pyridin-5-amine], the IC50 in assay [1] amounted to 39.2 nM; in assay [2], 239 nM; in assay [3], 90.1 nM.
In the same order, the values of `COc1ccccc1CNc1ccc(-c2ccnc(C)c2)c2nncn12` [Example 91, N-(2-methoxybenzyl)-8-(2-methylpyridin-4-yl)-[1,2,4] triazolo[4,3-a]pyridin-5-amine] are 37.5 nM, 278 nM and 60.8 nM.
For `COc1ccccc1CNc1ccc(-c2cccc(CCN(C)C)c2)c2nncn12` [Example 94, 8-(3-(2-(dimethylamino)ethyl)phenyl)-N-(2-methoxybenzyl)-[1,2,4]triazolo[4,3-a] pyridin-5-amine] the same measures were 26.5 nM, 62.3 nM and 41.1 nM.
For `COc1cccc(F)c1CNc1ccc(-c2ccc(S(N)(=O)=O)cc2)c2nncn12` [Example 100, 4-(5-((2-fluoro-6-methoxybenzyl)amino)-[1,2,4]triazolo[4,3-a]pyridin-8-yl)benzenesulfonamide] the same measures were 12.4 nM, 139 nM and 40 nM.
`COc1ccccc1CNc1ccc(-c2ccc(S(=O)(=O)NCCO)cc2)c2nncn12` [Example 101, N-(2-hydroxyethyl)-4-(5-((2-methoxybenzyl)amino)-[1,2,4]triazolo[4,3-a]pyridin-8-yl)benzenesulfonamide]: the values for the half-inhibitory concentration (IC50) in assay [1], in assay [2] and in assay [3] were 50.1 nM, 2580 nM and 102 nM, respectively.
With `COc1ccccc1CNc1ccc(-c2ccc([S+](C)[O-])cc2)c2nncn12` (stereo not drawn) [Example 102, N-(2-methoxybenzyl)-8-(4-(methylsulfinyl)phenyl)-[1,2,4]triazolo[4,3-a]pyridin-5-amine], the figures for the IC50 in assay [1], in assay [2] and in assay [3] were 61.9 nM, 1460 nM and 68.9 nM, respectively.
Regarding `COc1cccc(F)c1CNc1ccc(-c2ccc(NS(C)(=O)=O)cc2)c2nncn12` [Example 105, N-(4-(5-((2-fluoro-6-methoxybenzyl)amino)-[1,2,4]triazolo[4,3-a]pyridin-8-yl)phenyl)methane sulfonamide], the half-inhibitory concentration (IC50) stood at 21.5 nM in assay [1], 281 nM in assay [2] and 43.3 nM in assay [3].
Consider `COc1cccc(F)c1CNc1ccc(-c2ccc(NS(C)(=O)=O)c(F)c2)c2nncn12` [Example 106, N-(2-fluoro-4-(5-((2-fluoro-6-methoxybenzyl)amino)-[1,2,4]triazolo[4,3-a]pyridin-8-yl)phenyl) methanesulfonamide], for which the concentration for half-maximal inhibition (IC50) in assay [1] was 46.8 nM; in assay [2] it was 454 nM; in assay [3] it was 53 nM.
For `COc1cccc(F)c1CNc1ccc(-c2ccc(C(=O)N3CCCC3)cc2)c2nncn12` [Example 107, (4-(5-((2-fluoro-6-methoxy benzyl)amino)-[1,2,4]triazolo[4,3-a]pyridin-8-yl)phenyl)(pyrrolidin-1-yl) methanone] the same measures were 21.4 nM, 108 nM and 12.6 nM.
Regarding `COc1cccc(F)c1CNc1ccc(-c2cnc(N3CCN(C(C)C)CC3)c(C(F)(F)F)c2)c2nncn12` [Example 108, N-(2-fluoro-6-methoxybenzyl)-8-(6-(4-isopropylpiperazin-1-yl)-5-(trifluoromethyl)pyridin-3-yl)-[1,2,4]triazolo[4,3-a] pyridin-5-amine], the half-inhibitory concentration (IC50) in assay [1] came out at 70.8 nM; in assay [2] it was 350 nM; in assay [3], 191 nM.
For the compound `COc1cccc(F)c1CNc1ccc(-c2cnc(N3CCN(C(C)C)CC3)c(Cl)c2)c2nncn12` [Example 109, 8-(5-chloro-6-(4-isopropylpiperazin-1-yl)pyridin-3-yl)-N-(2-fluoro-6-methoxybenzyl)-[1,2,4] triazolo[4,3-a]pyridin-5-amine], the half-maximal inhibitory concentration (IC50) in assay [1] came out at 27.1 nM; in assay [2], 299 nM; in assay [3], 103 nM.
In the same order, the values of `COc1ccccc1CNc1ccc(-c2ccc(C)nc2)c2nncn12` [Example 111, N-(2-methoxybenzyl)-8-(6-methylpyridin-3-yl)-[1,2,4] triazolo[4,3-a]pyridin-5-amine] are 76.5 nM, 405 nM and 56.7 nM.
In the same order, the values of `COc1cccc(F)c1CNc1ccc(-c2ccc(S(C)(=O)=O)nc2)c2nncn12` [Example 112, N-(2-fluoro-6-methoxybenzyl)-8-(6-(methylsulfonyl)pyridin-3-yl)-[1,2,4]triazolo[4,3-a] pyridin-5-amine] are 9.8 nM, 256 nM and 4.9 nM.
For `COc1cccc(F)c1CNc1ccc(-c2ccncc2)c2nncn12` [Example 113, N-(2-fluoro-6-methoxybenzyl)-8-(pyridin-4-yl)-[1,2,4]triazolo[4,3-a]pyridin-5-amine] the same measures were 38.7 nM, 117 nM and 27.4 nM.
Turning to `COc1cccc(F)c1CNc1ccc(-c2cccnc2)c2nncn12` [Example 114, N-(2-fluoro-6-methoxybenzyl)-8-(pyridin-3-yl)-[1,2,4]triazolo[4,3-a]pyridin-5-amine], the IC50 in assay [1] is 16 nM; in assay [2], 90.6 nM; in assay [3], 9.5 nM.
For `COc1ccccc1CNc1ccc(-c2ccc(CCN(C)C)cc2)c2nncn12` [Example 123, 8-(4-(2-(dimethylamino)ethyl)phenyl)-N-(2-methoxybenzyl)-[1,2,4]triazolo[4,3-a] pyridin-5-amine] the same measures were 42 nM, 368 nM and 99.4 nM.
With `COc1cccc(F)c1CNc1ccc(-c2c(C)nn(C)c2C)c2nncn12` [Example 124, N-(2-fluoro-6-methoxybenzyl)-8-(1,3,5-trimethyl-1H-pyrazol-4-yl)-[1,2,4] triazolo[4,3-a]pyridin-5-amine], the IC50 is 52.1 nM in assay [1], 64.5 nM in assay [2] and 24.7 nM in assay [3].
As to `COc1cccc(F)c1CNc1ccc(-c2ccc(S(=O)(=O)NCCO)cc2)c2nncn12` [Example 126, 4-(5-((2-fluoro-6-methoxybenzyl)amino)-[1,2,4]triazolo[4,3-a]pyridin-8-yl)-N-(2-hydroxyethyl) benzenesulfonamide], the half-inhibitory concentration (IC50) is 11.5 nM in assay [1], 1740 nM in assay [2] and 5 nM in assay [3].
In the case of `COc1ccccc1CNc1ccc(-c2ccc(S(=O)(=O)C(C)C)nc2)c2nncn12` [Example 127, 8-(6-(isopropylsulfonyl)pyridin-3-yl)-N-(2-methoxybenzyl)-[1,2,4]triazolo[4,3-a] pyridin-5-amine], the results for the IC50 in assay [1], in assay [2] and in assay [3] were 21.7 nM, 572 nM and 14.2 nM, respectively.
For `COc1ccccc1CNc1ccc(-c2ccc(S(=O)(=O)C3CCN(C)CC3)cc2)c2nncn12` [Example 128, N-(2-methoxybenzyl)-8-(4-((1-methylpiperidin-4-yl)sulfonyl)phenyl)-[1,2,4] triazolo[4,3-a]pyridin-5-amine], the 50% inhibitory concentration (IC50) in assay [1] stood at 33.2 nM; in assay [2], 224 nM; in assay [3], 18.5 nM.
